The values below are quoted from earlier work in patent US7794750B2, “Controlled-release formulations, method of manufacture, and use thereof” (Mutual Pharmaceutical Company, Inc., priority 2008, dated 2010).

Counter-ions that a name gives are not always drawn.

For the data set the following is noted: 25° C., pH of about 7.

The aqueous solubility is the dissolved amount per volume that the medium holds. As to `OCCOCCN1CCN(C2=Nc3ccccc3Sc3ccccc32)CC1` [Quetiapine fumarate, quetiapine fumarate], the aqueous solubility is 3290 µg/mL.
